Measured values from patent US7045532B2 (Millennium Pharmaceuticals, Inc., priority 1999, dated 2006).
Read-outs that look alike come from different tables or passages of the source.

Target: T1, ACE-2 (Homo sapiens, UniProt Q9BYF1)
T1 construct: a stop codon inserted after the serine immediately preceding the transmembrane domain; made in house; host or cells: CHO K1 cells (transient transfection, purified from conditioned medium)
Experiment: ACE-2 Competitive Substrate Assay (ACS Assay)
Assay type: biochemical

[1] = Ki class per key, compounds tested in 5% DMSO, 12 compound concentrations, 25° C., Ki=Kiapp/(1+[S]/Km), read-out: Human ACE-2 Activity
[2] = Table 3, very good ACE-2 inhibiting compounds, species not given, read-out: ACE-2 Activity, Ki
[3] = Ki class, compounds tested in 5% DMSO, 12 compound concentrations, Ki=Kiapp/(1+[S]/Km), read-out: Human ACE-2 Activity

T1 sequence (Q9BYF1 18-740 limits assumed): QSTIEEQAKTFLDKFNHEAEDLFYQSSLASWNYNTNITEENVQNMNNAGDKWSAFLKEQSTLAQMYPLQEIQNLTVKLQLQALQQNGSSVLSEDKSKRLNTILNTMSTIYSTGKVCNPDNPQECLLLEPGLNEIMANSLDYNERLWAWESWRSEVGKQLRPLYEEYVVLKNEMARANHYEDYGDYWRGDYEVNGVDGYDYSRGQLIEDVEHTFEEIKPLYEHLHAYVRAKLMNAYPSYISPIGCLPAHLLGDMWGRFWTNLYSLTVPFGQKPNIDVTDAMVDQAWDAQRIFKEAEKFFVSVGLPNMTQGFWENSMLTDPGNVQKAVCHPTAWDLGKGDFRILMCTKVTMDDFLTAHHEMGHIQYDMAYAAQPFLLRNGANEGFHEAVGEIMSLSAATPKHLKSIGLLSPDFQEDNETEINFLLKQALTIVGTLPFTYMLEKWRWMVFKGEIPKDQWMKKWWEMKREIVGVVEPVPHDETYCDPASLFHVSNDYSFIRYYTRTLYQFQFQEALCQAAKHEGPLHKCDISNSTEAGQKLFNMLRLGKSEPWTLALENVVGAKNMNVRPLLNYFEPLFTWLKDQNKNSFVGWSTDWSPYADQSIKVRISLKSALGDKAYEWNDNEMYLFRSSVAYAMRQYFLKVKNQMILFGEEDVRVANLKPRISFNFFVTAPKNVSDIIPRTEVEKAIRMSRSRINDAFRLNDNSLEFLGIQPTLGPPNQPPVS

Structure (SMILES)	Ki [3]	other results
CC(C)C[C@H](N[C@@H](Cc1ccc(Oc2ccccc2)cc1)C(=O)O)C(=O)O [QJ, 2-[1-Carboxy-2-(4-phenoxy-phenyl)-ethylamino]-4-methyl-pentanoic acid]		Ki [1]: 100 to 500 nM
CC(C)C[C@H](N[C@@H](Cc1cccc(Cc2ccccc2)c1)C(=O)O)C(=O)O [PB, (S,S)-2-[2-(3-Benzyl-phenyl)-1-carboxy-ethylamino]-4-methyl-pentanoic acid]		Ki [1]: > 500 nM
CC(C)C[C@H](N[C@@H](Cc1cccc(OCc2csc3ccc(Cl)cc23)c1)C(=O)O)C(=O)O [PH, S,S-2-{1-Carboxy-2-[3-(5-chloro-benzo[b]thiophen-3-ylmethoxy)-phenyl]-ethylamino}-4-methyl-pentanoic acid]		Ki [1]: < 100 nM; Ki [2]: < 50 nM
CC(C)C[C@H](N[C@@H](Cc1ccc(C(=O)NC2CCCCC2)cc1)C(=O)O)C(=O)O [QH, 2-[1-Carboxy-2-(4-cyclohexylcarbamoyl-phenyl)-ethylamino]-4-methyl-pentanoic acid]		Ki [1]: > 500 nM
CC(C)C[C@H](N[C@@H](CN1CCN(c2cc(F)cc(F)c2)C1=O)C(=O)O)C(=O)O [NC, 2-{1-Carboxy-2-[3-(3,5-difluoro-phenyl)-2-oxo-imidazolidin-1-yl]-ethylamino}-4-methyl-pentanoic acid]	> 500 nM	
CCC(CC)Cn1cncc1C[C@H](NC(CC(C)C)C(=O)O)C(=O)O (single isomer, unassigned) [JN, 2-[1-Carboxy-2-[3-(2-ethylbutyl)-3H-imidazol-4-yl]-ethylamino]-4-methyl-pentanoic acid]	> 500 nM	
CCCCc1ccc(Cn2cncc2C[C@H](NC(CC(C)C)C(=O)O)C(=O)O)cc1 (single isomer, unassigned) [HJ, 2-[2-[3-(4-Butyl-benzyl)-3H-imidazol-4-yl]-1-carboxy-ethylamino]-4-methyl-pentanoic acid]	> 500 nM	
CC(C)C[C@H](N[C@@H](Cc1ccn(-c2ccccc2)n1)C(=O)O)C(=O)O [OD, 2-[1-carboxy-2-(1phenyl-1H-pyrazol-3-yl)-ethylamino]-4-methyl-pentanoic acid]	100 to 500 nM	
CC(C)C[C@H](N[C@@H](Cc1ccc(OCCc2ccccc2)cc1)C(=O)O)C(=O)O [LT, 2-[1-Carboxy-2-(4-phenethyloxy-phenyl)-ethylamino]-4-methyl-pentanoic acid]	100 to 500 nM	
CC(C)CC(N[C@@H](Cc1cncn1Cc1ccc([N+](=O)[O-])cc1)C(=O)O)C(=O)O (single isomer, unassigned) [IC, 2-[1-Carboxy-2-[3-(4-nitro-benzyl)-3H-imidazol-4-yl]-ethylamino]-4-methyl-pentanoic acid]	< 100 nM	Ki [2]: 50 to 100 nM
CC(C)C[C@H](N[C@@H](Cc1ccc(-c2ccncc2)cc1)C(=O)O)C(=O)O [PK, (S,S)-2-[1-Carboxy-2-(4-pyridin-4-yl-phenyl)-ethylamino]-4-methyl-pentanoic acid]		Ki [1]: 100 to 500 nM
C[C@@H](N[C@@H](CCCN)C(=O)O)C(=O)O [M, 5-Amino-2-(1-carboxy-ethylamino)-pentanoicacid]		Ki (Ki class, compounds tested in 5% DMSO, 12 concentrations, read-out: Human ACE-2 Activity): > 500 nM
CC(C)C[C@H](N[C@@H](Cc1ccc(-c2ccc(C(F)(F)F)cc2)o1)C(=O)O)C(=O)O [OM, (S,S)-2-{1-Carboxy-2-[5-(4-trifluoromethyl-phenyl)-furan-2-yl]-ethylamino}-4-methyl-pentanoic acid]	> 500 nM	
Cc1nc(C[C@H](NC(CC(C)C)C(=O)O)C(=O)O)c(Cc2ccccc2)s1 (single isomer, unassigned) [KC, 2-[2-(5-Benzyl-2-methyl-thiazol-4-yl)-1-carboxy-ethylamino]-4-methyl-pentanoic acid]	> 500 nM	
CC(C)C[C@H](N[C@@H](Cn1ccn(CCC2CCCCC2)c1=O)C(=O)O)C(=O)O [ME, (S,S)-2-{1-Carboxy-2-[3-(2-cyclohexyl-ethyl)-2-oxo-2,3-dihydro-imidazol-1-yl]-ethylamino}-4-methyl-pentanoic acid]	100 to 500 nM	
CC(C)CC(N[C@@H](Cc1cncn1Cc1cccc(C(F)(F)F)c1)C(=O)O)C(=O)O (single isomer, unassigned) [JA, 2-[1-Carboxy-2-[3-(3-trifluoromethyl-benzyl)-3H-imidazol-4-yl]-ethylamino]4-methyl-pentanoic acid]	> 500 nM	
CC(C)C[C@H](N[C@@H](Cc1ccccc1C#N)C(=O)O)C(=O)O [QI, 2-[1-Carboxy-2-(2-cyano-phenyl)-ethylamino]-4-methyl-pentanoic acid]		Ki [1]: 100 to 500 nM
CC(C)C[C@H](N[C@@H](Cn1ccn(C2CCCCC2)c1=O)C(=O)O)C(=O)O [MN, 2-[1-Carboxy-2-(3-cyclohexyl-2-oxo-2,3-dihydro-imidazol-1-yl)-ethylamino]-4-methyl-pentanoic acid]	100 to 500 nM	
CC(C)C[C@H](N[C@@H](Cc1cncn1Cc1cc(Cl)cc(Cl)c1)C(=O)OC1CCCC1)C(=O)O [LQ, (S,S) 2-{1-Cyclopentyloxycarbonyl-2-[3-(3,5-dichloro-benzyl)-3H-imidazol-4-yl]-ethylamino}-4-methyl-pentanoic acid]	> 500 nM	
COc1ccc2nc(NC(=O)C[C@H](N[C@@H](CC(C)C)C(=O)O)C(=O)O)sc2c1 [MO, (S,S)-2-[1-Carboxy-2-(6-methoxy-benzothiazol-2-ylcarbamoyl)-ethylamino]-4-methyl-pentanoic acid]	100 to 500 nM	
CC(C)C[C@H](N[C@@H](Cc1ccc(OCc2cc(Cl)cc(Cl)c2)cc1)C(=O)O)C(=O)O [KS, 2-[1-Carboxy-2-[4-(3,5-dichloro-benzyloxy)-phenyl]-ethylamino)-4-methyl-pentanoic acid]	< 100 nM	Ki [2]: < 50 nM
COc1cccc(C(=O)NC[C@H](N[C@@H](CC(C)C)C(=O)O)C(=O)O)c1 [LZ, 2-[1-Carboxy-2-(3-methoxy-benzoylamino)-ethylamino]-4-methyl-pentanoic acid]	100 to 500 nM	
CC(C)C[C@H](N[C@@H](Cc1ccc(-c2csc3ccccc23)cc1)C(=O)O)C(=O)O [PA, 2-[2-(4-Benzo[b]thiophen-3-yl-phenyl)-1-carboxy-ethylamino]-4-methyl-pentanoic acid]		Ki [1]: < 100 nM; Ki [2]: < 50 nM
CC(C)CC(N[C@@H](Cc1cncn1Cc1cccc(F)c1F)C(=O)O)C(=O)O (single isomer, unassigned) [IV, 2-[1-Carboxy-2-[3-(2,3-difluoro-benzyl)-3H-imidazol-4-yl]-ethylamino]4-methyl-pentanoic acid]	> 500 nM	
CC(C)C[C@H](N[C@@H](Cc1ccc(-c2ccc(Cl)cc2)o1)C(=O)O)C(=O)O [OL, (S,S)-2-{1-Carboxy-2-[5-(4-chloro-phenyl)-furan-2-yl]-ethylamino}-4-methyl-pentanoic acid]	> 500 nM	
CC(C)C[C@H](N[C@@H](Cc1ccc(NC(=O)C2CCCC2)cc1)C(=O)O)C(=O)O [QR, 2-[1-Carboxy-2-[4-(cyclopentanecarbonyl-amino)-phenyl]-ethylamino]-4-methyl-pentanoic acid]		Ki [1]: 100 to 500 nM
CC(C)C[C@H](N[C@@H](Cc1csc(-c2ccc(Cl)cc2Cl)n1)C(=O)O)C(=O)O [KG, (S,S)-2-{1-Carboxy-2-[2-(2,4-dichloro-phenyl)-thiazol-4-yl-]-ethylamino}-4-methyl-pentanoic acid]	< 100 nM	Ki [2]: 50 to 100 nM
CC(C)C[C@H](N[C@@H](Cc1ccn(Cc2cc(Cl)cc(Cl)c2)n1)C(=O)O)C(=O)O [LP, (S,S)-2-{1-carboxy-2-[1-(3,5-dichlorobenzyl)-1H-pyrazol-3-yl]-ethylamino}-4-methyl pentanoic acid]	< 100 nM	Ki [2]: < 50 nM
